From ChEMBL document CHEMBL3612024, “Synthesis of five and six-membered heterocycles bearing an arylpiperazinylalkyl side chain as orally active antinociceptive agents” (2015)
The source made the active and inactive calls. The calls are words filed in the database; no cut-off is given here.

Columns and labels:
Details in all cases: Abdomen
Mus musculus [1] = experiment: Antinociceptive activity in Swiss albino mouse assessed as inhibition of acetic acid-induced abdominal constriction at 10 mg/kg, po administered 30 mins prior to testing measured for 10 mins starting 5 mins after acetic acid injection relative to control; format: functional
Mus musculus [2] = experiment: Antinociceptive activity in Swiss albino mouse assessed as inhibition of acetic acid-induced abdominal constriction at 20 mg/kg, po administered 30 mins prior to testing measured for 10 mins starting 5 mins after acetic acid injection relative to control; format: functional
Mus musculus [3] = experiment: Antinociceptive activity in Swiss albino mouse assessed as inhibition of acetic acid-induced abdominal constriction at 40 mg/kg, po administered 30 mins prior to testing measured for 10 mins starting 5 mins after acetic acid injection in presence of alpha-2 adrenergic receptor antagonist yohimbine; format: functional, organism-based
Mus musculus [4] = experiment: Antinociceptive activity in Swiss albino mouse assessed as inhibition of acetic acid-induced abdominal constriction at 40 mg/kg, po administered 30 mins prior to testing measured for 10 mins starting 5 mins after acetic acid injection relative to control; format: functional
Mus musculus [5] = experiment: Antinociceptive activity in Swiss albino mouse assessed as inhibition of acetic acid-induced abdominal constriction at 30 mg/kg, po administered 30 mins prior to testing measured for 10 mins starting 5 mins after acetic acid injection in presence of alpha-2 adrenergic receptor antagonist yohimbine; format: functional, organism-based
Mus musculus [6] = experiment: Antinociceptive activity in Swiss albino mouse assessed as inhibition of acetic acid-induced abdominal constriction at 30 mg/kg, po administered 30 mins prior to testing measured for 10 mins starting 5 mins after acetic acid injection relative to control; format: functional
Mus musculus [7] = experiment: Antinociceptive activity in Swiss albino mouse assessed as inhibition of acetic acid-induced abdominal constriction at 80 mg/kg, po administered 30 mins prior to testing measured for 10 mins starting 5 mins after acetic acid injection relative to control; format: functional
Mus musculus [8] = experiment: Antinociceptive activity in Swiss albino mouse assessed as inhibition of acetic acid-induced abdominal constriction at 20 mg/kg, po administered 30 mins prior to testing measured for 10 mins starting 5 mins after acetic acid injection in presence of alpha-2 adrenergic receptor antagonist yohimbine; format: functional, organism-based

SMILES | inhibition in vivo at 10 mg/kg (Mus musculus [1]) | inhibition in vivo at 20 mg/kg (Mus musculus [2]) | inhibition (Mus musculus [3]) | inhibition in vivo at 40 mg/kg (Mus musculus [4]) | inhibition (Mus musculus [5]) | inhibition in vivo at 30 mg/kg (Mus musculus [6]) | inhibition in vivo at 80 mg/kg (Mus musculus [7]) | inhibition (Mus musculus [8]) | inhibition (Mus musculus [1]) | inhibition (Mus musculus [6])
CCC/C=C/c1c(C)nn(CCCN2CCN(c3ccc(C)cc3)CC2)c(=O)c1N | 0% | 16% | inactive | 36% | – | – | – | – | – | –
CCc1c(C)nn(CCCN2CCN(c3ccc(C)cc3)CC2)c(=O)c1N | 23% | – | – | – | inactive | 45% | – | – | – | –
C=Cc1c(C)nn(CCCCN2CCN(c3ccc(C)cc3)CC2)c(=O)c1N | 3% | – | – | – | inactive | 42% | – | – | – | –
CC(=O)c1cccn1CCCN1CCN(c2ccc(C)cc2)CC1 | 12% | 7% | – | 9% | – | – | 4% | – | – | –
COc1cccc(N2CCN(CCCn3cccc3C(C)=O)CC2)c1 | 0% | 26% | inactive | 52% | – | – | – | – | – | –
C=Cc1c(CCC)nn(CCCN2CCN(c3ccc(C)cc3)CC2)c(=O)c1N | 3% | 7% | inactive | 22% | – | – | – | – | – | –
Cc1c(C#N)c(-c2ccccc2)nn1CCCN1CCN(c2ccc([N+](=O)[O-])cc2)CC1 | 0% | 21% | inactive | 49% | – | – | – | – | – | –
CC(=O)c1cccn1CCCN1CCN(c2cccc(Cl)c2)CC1 | 3% | 41% | – | 54% | – | – | – | inactive | – | –
C=Cc1c(C)nn(CCCN2CCN(C(=O)c3ccc(Cl)c(F)c3)CC2)c(=O)c1N | – | – | – | – | – | – | – | – | inactive | inactive
C=Cc1c(C)nn(CCCN2CCN(c3ccc(F)cc3)CC2)c(=O)c1N | 0% | – | – | – | inactive | 28% | – | – | – | –
Cc1c(C#N)c(-c2ccccc2)nn1CCCN1CCN(c2ccc(F)cc2)CC1 | 9% | 28% | inactive | 51% | – | – | – | – | – | –
C=Cc1c(C)nn(CCCN2CCCN(c3ccc(C)cc3)CC2)c(=O)c1N | 0% | 10% | inactive | 31% | – | – | – | – | – | –
CCc1nn(CCCN2CCN(c3ccc(C)cc3)CC2)c(=O)c(N)c1C(C)=O | 10% | 42% | – | 41% | – | – | – | inactive | – | –
C=Cc1c(C)nn(CCCCN2CCN(c3ccccc3OCC)CC2)c(=O)c1N | – | – | – | – | – | – | – | – | inactive | inactive
O=c1occ(-c2ccccc2)n1CCCN1CCN(c2ccc(F)cc2)CC1 | 14% | 12% | inactive | 34% | – | – | – | – | – | –
C=Cc1c(CC)nn(CCCN2CCN(c3ccc(C)cc3)CC2)c(=O)c1N | 0% | 0% | inactive | 28% | – | – | – | – | – | –

SMILES | inhibition in vivo at 10 mg/kg (Mus musculus [1]) | inhibition in vivo at 20 mg/kg (Mus musculus [2]) | inhibition (Mus musculus [3]) | inhibition in vivo at 40 mg/kg (Mus musculus [4]) | inhibition (Mus musculus [5]) | inhibition in vivo at 30 mg/kg (Mus musculus [6]) | inhibition in vivo at 80 mg/kg (Mus musculus [7]) | inhibition (Mus musculus [8]) | inhibition (Mus musculus [1]) | inhibition (Mus musculus [6])
C=Cc1c(C)nn(CC(C)CN2CCN(c3ccc(C)cc3)CC2)c(=O)c1N (configuration not stated) | 17% | – | – | – | inactive | 47% | – | – | – | –
CCC(=O)c1c(C)nn(CCCN2CCN(c3ccc(C)cc3)CC2)c(=O)c1N | 9% | 40% | – | 29% | – | – | – | inactive | – | –
CC/C=C/c1c(C)nn(CCCN2CCN(c3ccc(C)cc3)CC2)c(=O)c1N | 5% | 35% | – | 45% | – | – | – | inactive | – | –
O=c1occ(-c2ccccc2)n1CCCN1CCN(c2cccc(Cl)c2)CC1 | 7% | 31% | – | 38% | – | – | – | inactive | – | –
CC(=O)c1c(C)nn(CCCN2CCN(c3ccc(C)cc3)CC2)c(=O)c1N | 19% | – | – | – | inactive | 46% | – | – | – | –
Cc1c(C#N)c(-c2ccccc2)nn1CCCN1CCN(c2cccc(Cl)c2)CC1 | – | 0% | inactive | 23% | – | – | – | – | – | –
COc1cccc(N2CCN(CCCn3nc(-c4ccccc4)c(C#N)c3C)CC2)c1 | 0% | 21% | – | 34% | – | – | – | inactive | – | –
COc1cccc(N2CCN(CCCn3c(-c4ccccc4)coc3=O)CC2)c1 | 8% | 25% | – | 39% | – | – | – | inactive | – | –
C/C=C/c1c(C)nn(CCCN2CCN(c3ccc(C)cc3)CC2)c(=O)c1N | 0% | 44% | – | 63% | – | – | – | inactive | – | –
CCCCC(=O)c1c(C)nn(CCCN2CCN(c3ccc(C)cc3)CC2)c(=O)c1N | 8% | 23% | – | 15% | – | – | – | inactive | – | –
Cc1ccc(N2CCN(CCCn3nc(-c4ccccc4)c(C#N)c3C)CC2)cc1 | 0% | 8% | – | 30% | – | – | – | inactive | – | –
C=Cc1c(CCCC)nn(CCCN2CCN(c3ccc(C)cc3)CC2)c(=O)c1N | 0% | 41% | – | 48% | – | – | – | inactive | – | –
CCCC(=O)c1c(C)nn(CCCN2CCN(c3ccc(C)cc3)CC2)c(=O)c1N | 0% | 25% | – | 32% | – | – | – | inactive | – | –
CC(=O)c1cccn1CCCN1CCN(c2ccc([N+](=O)[O-])cc2)CC1 | – | 11% | – | 0% | – | – | 9% | – | – | –
CC(=O)c1cccn1CCCN1CCN(c2ccc(F)cc2)CC1 | 0% | 16% | inactive | 38% | – | – | – | – | – | –
C=Cc1c(C)nn(CCCN2CCN(c3ccc(C)cc3)CC2)c(=O)c1N | 33% | – | inactive | 65% | – | 59% | – | – | – | –
